Data as given in ChEMBL document CHEMBL1201862, “PubChem BioAssay data set” (2004).
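In this assay, cells in 96-well plates receive the compound at five concentrations for 48 hours. Endpoints are linearly interpolated between the surrounding concentrations. The concentration for 50% growth inhibition is given as GI50.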 Calls of active or inactive are those of the source. Rule as the data show it: active = GI50 up to about 1.1 µM and inactive = higher.

Tests used:
Assay in all cases: NCI-60 cell line screen, 48 h
786-0 = system: 786-0
A498 = system: A498
A549 = system: A549
ACHN = system: ACHN
BT-549 = system: BT-549
CAKI-1 = system: CAKI-1
CCRF-CEM = system: CCRF-CEM
COLO 205 = system: COLO 205
DU-145 = system: DU-145
EKVX = system: EKVX
HCC 2998 = system: HCC 2998
HCT-116 = system: HCT-116
HCT-15 = system: HCT-15
HOP-62 = system: HOP-62
HOP-92 = system: HOP-92
HT-29 = system: HT-29
Hs-578T = system: Hs-578T
IGROV-1 = system: IGROV-1
K562 = system: K562
KM12 = system: KM12
LOX IMVI = system: LOX IMVI
M14 = system: M14
MCF7 = system: MCF7
MDA-MB-231 = system: MDA-MB-231
MDA-MB-435 = system: MDA-MB-435
MDA-N = system: MDA-N
MOLT-4 = system: MOLT-4
Malme-3M = system: Malme-3M
NCI-H226 = system: NCI-H226
NCI-H23 = system: NCI-H23
NCI-H460 = system: NCI-H460
NCI-H522 = system: NCI-H522
OVCAR-3 = system: OVCAR-3
OVCAR-4 = system: OVCAR-4
OVCAR-5 = system: OVCAR-5
OVCAR-8 = system: OVCAR-8
PC-3 = system: PC-3
RPMI-8226 = system: RPMI-8226
RXF 393 = system: RXF 393
SF-268 = system: SF-268
SF-295 = system: SF-295
SF-539 = system: SF-539
SK-MEL-28 = system: SK-MEL-28
SK-MEL-2 = system: SK-MEL-2
SK-MEL-5 = system: SK-MEL-5
SK-OV-3 = system: SK-OV-3
SN12C = system: SN12C
SNB-19 = system: SNB-19
SNB-75 = system: SNB-75
SR = system: SR
SW-620 = system: SW-620
T47D = system: T47D
TK-10 = system: TK-10
U-251 = system: U-251
UACC-257 = system: UACC-257
UACC-62 = system: UACC-62
UO-31 = system: UO-31
HL-60 = system: HL-60
NCI/ADR-RES = system: NCI/ADR-RES

Measured: GI50

C=CC1(C)CCC2C(=CCC3C(C)(COC4OC(C(=O)O)C(O)C(O)C4O)C(O)CCC23C)C1.C=CC1(C)CCC2C(=CCC3C2(C)CC(O)C(O)C3(C)COC2OC(C(=O)O)C(O)C(O)C2O)C1 (configuration not stated)
> 100 µM: HCT-15
inactive: 786-0 > 100 µM | A498 > 100 µM | A549 > 100 µM | ACHN > 100 µM | BT-549 > 100 µM | CAKI-1 > 100 µM | CCRF-CEM 19.4 µM | COLO 205 > 100 µM | DU-145 > 100 µM | EKVX > 100 µM | HCC 2998 > 100 µM | HCT-116 > 100 µM | HOP-62 > 100 µM | HOP-92 > 100 µM | HT-29 > 100 µM | Hs-578T > 100 µM | IGROV-1 > 100 µM | K562 54.5 µM | KM12 > 100 µM | LOX IMVI > 100 µM | M14 > 100 µM | MCF7 71 µM | MDA-MB-231 > 100 µM | MDA-MB-435 > 100 µM | MDA-N > 100 µM | MOLT-4 13.3 µM | Malme-3M > 100 µM | NCI-H226 > 100 µM | NCI-H23 > 100 µM | NCI-H460 > 100 µM | NCI-H522 > 100 µM | OVCAR-3 > 100 µM | OVCAR-4 > 100 µM | OVCAR-5 > 100 µM | OVCAR-8 > 100 µM | PC-3 80.4 µM | RPMI-8226 > 100 µM | RXF 393 > 100 µM | SF-268 > 100 µM | SF-295 70.1 µM | SF-539 > 100 µM | SK-MEL-28 > 100 µM | SK-MEL-2 > 100 µM | SK-MEL-5 > 100 µM | SK-OV-3 > 100 µM | SN12C > 100 µM | SNB-19 > 100 µM | SNB-75 > 100 µM | SR 44.6 µM | SW-620 > 100 µM | T47D > 100 µM | TK-10 46.1 µM | U-251 > 100 µM | UACC-257 83.4 µM | UACC-62 > 100 µM | UO-31 > 100 µM

N#Cc1c(-c2ccccc2)c(C=O)c(=O)n2c1[nH]c1ccccc12
inactive: 786-0 > 100 µM | A498 26.1 µM | A549 > 100 µM | ACHN 78.3 µM | BT-549 39.1 µM | CAKI-1 > 100 µM | CCRF-CEM 17.6 µM | COLO 205 53.1 µM | DU-145 > 100 µM | EKVX > 100 µM | HCT-116 82.4 µM | HL-60 56.9 µM | HT-29 92 µM | Hs-578T 31.3 µM | IGROV-1 > 100 µM | K562 67 µM | KM12 60.1 µM | M14 97.5 µM | MDA-MB-231 38.2 µM | MDA-MB-435 67.1 µM | MDA-N 84.3 µM | MOLT-4 33.7 µM | Malme-3M > 100 µM | NCI-H226 55.6 µM | NCI-H23 61.7 µM | NCI-H460 > 100 µM | NCI-H522 55.6 µM | NCI/ADR-RES > 100 µM | OVCAR-4 20.5 µM | OVCAR-5 > 100 µM | OVCAR-8 > 100 µM | PC-3 > 100 µM | RPMI-8226 63.2 µM | RXF 393 42.5 µM | SF-268 65.9 µM | SF-295 > 100 µM | SF-539 77.1 µM | SK-MEL-28 23.9 µM | SK-MEL-2 33 µM | SK-MEL-5 > 100 µM | SK-OV-3 > 100 µM | SN12C 45.3 µM | SNB-19 50.7 µM | SNB-75 22.1 µM | SR 67.6 µM | SW-620 42.6 µM | T47D 65.9 µM | TK-10 77.3 µM | U-251 50.8 µM | UACC-257 > 100 µM | UACC-62 40.7 µM | UO-31 40.6 µM
70 µM: HCT-15

CN(C)Cc1cc(/N=N/c2ccccc2)cc(CN(C)C)c1O
56.6 µM: HCT-15
inactive: 786-0 36.2 µM | A498 97.3 µM | A549 > 100 µM | ACHN > 100 µM | BT-549 > 100 µM | CAKI-1 > 100 µM | CCRF-CEM 32.3 µM | COLO 205 20.5 µM | DU-145 92.5 µM | EKVX > 100 µM | HCC 2998 79.1 µM | HCT-116 53.6 µM | HL-60 21.9 µM | HOP-62 > 100 µM | HOP-92 63.1 µM | HT-29 73.8 µM | Hs-578T > 100 µM | IGROV-1 85.7 µM | K562 97.5 µM | KM12 98.6 µM | LOX IMVI 47.2 µM | M14 > 100 µM | MDA-MB-231 71 µM | MDA-MB-435 > 100 µM | MDA-N > 100 µM | MOLT-4 45.8 µM | Malme-3M > 100 µM | NCI-H226 > 100 µM | NCI-H23 > 100 µM | NCI-H460 47.1 µM | NCI-H522 > 100 µM | NCI/ADR-RES 43 µM | OVCAR-3 27.4 µM | OVCAR-4 35.8 µM | OVCAR-5 > 100 µM | OVCAR-8 57.1 µM | PC-3 > 100 µM | RPMI-8226 80.5 µM | RXF 393 44.7 µM | SF-268 73.5 µM | SF-295 > 100 µM | SF-539 > 100 µM | SK-MEL-28 > 100 µM | SK-MEL-2 64.4 µM | SK-MEL-5 > 100 µM | SK-OV-3 > 100 µM | SN12C > 100 µM | SNB-19 > 100 µM | SNB-75 > 100 µM | SR > 100 µM | SW-620 > 100 µM | T47D > 100 µM | TK-10 > 100 µM | U-251 99.1 µM | UACC-257 > 100 µM | UACC-62 > 100 µM | UO-31 55 µM

C=CCOC(=O)C[C@H](NC(=O)[C@H](Cc1ccc(O)cc1)NCC(F)(F)F)C(=O)OCC=C
> 100 µM: HCT-15
inactive: 786-0 > 100 µM | A549 > 100 µM | ACHN > 100 µM | BT-549 > 100 µM | CAKI-1 > 100 µM | COLO 205 31.8 µM | EKVX 25.5 µM | HCC 2998 83.4 µM | HCT-116 > 100 µM | HOP-62 > 100 µM | HOP-92 > 100 µM | HT-29 > 100 µM | Hs-578T 41.7 µM | IGROV-1 > 100 µM | K562 39.2 µM | KM12 > 100 µM | LOX IMVI 65.5 µM | M14 41.7 µM | MCF7 53.8 µM | MDA-MB-231 72.9 µM | MDA-MB-435 41.3 µM | MDA-N 35.3 µM | MOLT-4 25.1 µM | Malme-3M 22.6 µM | NCI-H226 > 100 µM | NCI-H23 37.5 µM | NCI-H460 59.6 µM | NCI-H522 25 µM | NCI/ADR-RES > 100 µM | OVCAR-4 > 100 µM | OVCAR-5 > 100 µM | OVCAR-8 > 100 µM | PC-3 77.8 µM | RPMI-8226 36.1 µM | RXF 393 > 100 µM | SF-268 37.7 µM | SF-295 > 100 µM | SF-539 57.8 µM | SK-MEL-28 20.6 µM | SK-MEL-2 21.3 µM | SK-MEL-5 30.5 µM | SK-OV-3 > 100 µM | SN12C 45 µM | SNB-19 > 100 µM | SNB-75 31.6 µM | SR 34 µM | SW-620 54.3 µM | T47D 23.6 µM | TK-10 > 100 µM | U-251 > 100 µM | UACC-257 20.8 µM | UACC-62 40.7 µM | UO-31 > 100 µM
